This is an account of results in patent publication US9821010B2, “Methods for expansion or depletion of T-regulatory cells” (The General Hospital Corporation, priority 2013, dated 2017).

“Also recorded” adds a separate entry of the source.

The test system of one assay is expanded CD4+CD25+ cells. The assay can be described thus: Intracellular cytokine production of expanded Tregs after PMA and ionomycin. Conditions: PMA and ionomycin 24 hours; Tregs expanded with rapamycin. The format is cell-based, human. As to the method:
Expanded CD4^+CD25^+ cells were stimulated with phorbol myristate acetate (PMA) (2 ng/ml) and ionomycin (500 ng/ml) (Sigma) for 24 hours. Monensin (GolgiStop, BD Biosciences) was added for the last 4 hours of incubation. Cells were fixed and permeabilized using Human FOXP3 Buffer Set, followed by staining with fluorochrome-conjugated IFNγ and IL-10 mAbs.
One of the reasons for these Tregs showing high suppression capacity over CD8+ T cells may be due to Tregs lacking the ability to produce IFNγ.

Assay [1] concerns freshly isolated human CD4+ cells. The assay can be described thus: FOXP3 induction by TNF-α in freshly isolated human CD4+ cells. In kind it is cell-based. How it is done:
I cultured freshly isolated human CD4+ cells from 14 human subjects only with TNF-α for 16 hours (FIG. 1B). […] IL-2 is important for Tregs induction and maintenance in mice. […] Thus, the data in FIGS. 1B and 1C confirm that TNF-α […] in vitro.

Assay [2] deals with CD25+FOXP3− cell population. The assay can be described thus: Overnight incubation of CD4+ cells with IL-2: CD25+FOXP3- cell population. The format is cell-based, human. The following applies: overnight incubation with IL-2. How it is done:
Despite high expression of TNFR2 on Tregs, some TNFR2 expression is also observable on CD4+ T cells that are not true Tregs because they only express intermediate levels of CD25, i.e., CD4^+CD25^mid cells. I therefore studied the impact of overnight incubation on CD25^mid cell subpopulations of IL-2 alone, IL-2 and TNF-α, or IL-2 and TNFR2 agonist, or IL-2 and TNFR2 antagonist. […] However, I observed suppression with IL-2 and TNFR2 antagonist relative to the other three groups.

Setting [3] is: co-incubation with IL-2, compared to IL-2 alone.

For the substance TNF-α, the “percentage of IFNγ+ cells / IFNγ production” value with expanded CD4+CD25+ cells was “lowest percentages of IFNγ+ cells”. In addition, the “induction of Tregs (inducible FOXP3)” value in assay [1] (TNF-α alone, 16 hours, 14 subjects) is “no induction of Tregs; also recorded: does not induce FOXP3”; in assay [1] (setting [3]), “significant increase in Tregs over IL-2 alone; also recorded: does induce it to higher levels”. Further, the “percentage of CD4+CD25hi FOXP3 cells (flow cytometry)” value in assay [1] (setting [3]) is reported as “increased the percentage of CD4+CD25^hi FOXP3 cells; also recorded: greater intracellular induction of FOXP3”. The “proportion of CD25hiFOXP3− cells” value is reported as “rise in the proportion of CD25^hiFOXP3^− cells” in assay [2] and “Significant percentage increases” in assay [2] (listed as TNF).
